This is an account of results in the SangsterLogP compilation.

For the first data set the following is noted: pH 2.0.
As to `CC(=O)N1Cc2ccccc2C[C@H]1C(=O)OCc1ccc(C#N)cc1`, the logD was 2.41.
Same read-out and setting: to `COCON1C(=O)CN(C(C)=O)[C@H]1c1ccc(Cl)cc1Cl` belongs 1.98; to `COc1ccc(NC(=O)[C@H](OC(=O)CNC(=O)c2ccc(C)s2)c2ccccc2)cc1Cl`, 4.54.

The data set is the same for the next values; noted with them: pH 5.0.
Take `Cc1c(Cl)c(C(F)(F)F)nn1[C@@H](C)C(=O)N1CCOCC1`: the logD was found to be 3.08.
For the compound `CC1(C)C[C@](C)(O)[P@](C)(=O)O1`, the log distribution coefficient (logD) came out at 0.71.
The compound `CCCS(=O)(=O)c1c(S(=O)(=O)CCC)c2c3ccccc3ccn2c1C(=O)c1ccccc1` gave a logD of 4.48.
The compound `Cc1ccc(N2C(=O)c3ccccc3N[C@H]2c2cccc([N+](=O)[O-])c2)cc1` yielded a logD of 4.18.
`CCOC(=O)CN1C(=O)[C@@H](OC(=O)c2ccccc2)[C@@H](OC(=O)c2ccccc2)C1=O`: the pH-dependent lipophilicity (logD) worked out at 5.
Same read-out and setting: to `CC(=O)Nc1ccc(C(=O)N(Cc2ccco2)C2(C(=O)Nc3c(C)cccc3C)CCCCC2)cc1` belongs 4.62; to `CC1=C(C)C[C@@H]2C(=O)N(c3cccc(Br)c3)C(=O)[C@H]2C1`, 3.93; to `CCOC(=O)N1CCN(C(=O)c2ccc(N3C(=O)[C@H]4CCCC[C@@H]4C3=O)cc2)CC1`, 3.74.
As for `CCOC(=O)N1CCN(C(=O)c2noc3c2C[C@@H](C(C)(C)C)CC3)CC1`, the logD was found to be 4.52.
Compound `C[C@@H](NC(=O)CN(C1CCCCC1)S(=O)(=O)c1ccccc1)c1ccccc1` showed a logD of 4.9.
For the compound `C=CCN1C(=S)N(c2ccc(CC)cc2)[C@H]2CS(=O)(=O)C[C@@H]21`, the logD came to 2.86.
For the compound `COc1ccccc1NC(=O)C1=C(C)NC(SCC(=O)Nc2ccc(C)c(Cl)c2)=C(C#N)[C@@H]1c1ccco1`, the logD is 6.27.
The compound `O=C(c1sc2cc(Cl)ccc2c1Cl)N1CCN(C(=S)NC[C@H]2CCCO2)CC1` displayed a logD of 4.83.
`CC1(C)CC(=O)C2=C(C1)OC(N)=C(C#N)[C@H]2c1ccc(C(F)(F)F)cc1`: the logD came to 4.55.
Still for that read-out and setting: to `CCC(=O)N1c2ccccc2NC2=C(C(=O)CC(C)(C)C2)[C@H]1c1ccc(-c2ccc([N+](=O)[O-])cc2Cl)o1` belongs 5.55.
For the compound `CCC[C@@H]1C(=O)C[C@H](C(C)C)C(C#N)(C#N)C1(C#N)C#N`, the logD is 3.3.
`COC(=O)c1c(NC(=O)Cn2nc(C)c([N+](=O)[O-])c2C)sc2c1CC[C@H](C(C)(C)C)C2`: the logD was found to be 6.53.
Still for that read-out and setting: to `COc1ccc(N(C(=O)C2CCCCC2)S(=O)(=O)c2ccc3c4c(cccc24)C(=O)N3C)cc1` belongs 5.26.

The data set is the same for the next values; noted with them: pH 6.0.
For the compound `CC1=C(C(=O)N2CCCCC2)C(c2cccs2)C2=C(O)CCCC2=N1` (stereo not drawn), the logD came out at 3.37.

Still in this data set, the particulars now being: pH 6.5.
With `CCn1c(NC[C@@H](O)c2ccccc2)nc2c1c(=O)n(C)c(=O)n2C`, the logD stood at 3.24.
`O=C(CCCNC1=NS(=O)(=O)c2ccccc21)OCc1cc([N+](=O)[O-])cc2c1OCOC2` registered a log distribution coefficient (logD) of 3.52.
Still for that read-out and setting: to `C[C@@H]1CCCN(c2nc3c(c(=O)n(C)c(=O)n3C)n2CCSc2nc3ccccc3s2)C1` belongs 5.05; to `Cc1cccc(NC(=O)C[C@@H]2S/C(=N\c3c(C)cccc3C)N(C)C2=O)c1`, 4.75.

Still in this data set, the particulars now being: pH 7.0.
Compound `Cn1c([C@@H](C#N)C(=O)[C@@H](Sc2ccccc2)c2ccccc2)nc2ccccc21` gave a logD of 5.28.

The same data set, now with this note: pH 7.3.
Regarding `Cc1cc(C)n(-c2ccc(-n3cccc3/C=C(\C#N)S(C)(=O)=O)cc2)n1`, the logD worked out at 4.25.

Staying with this data set, now noted: pH 10.0.
`CC(=O)c1ccc(N2CCN(C(=O)/C=C/c3ccc(C)o3)CC2)cc1`: the logD is 4.3.
Still for that read-out and setting: to `CCOC(=O)C1=NN[C@@]2(c3cccc([N+](=O)[O-])c3)C(=O)N(c3cccc(C(F)(F)F)c3)C(=O)[C@H]12` belongs 4.73; to `COC(=O)C1=C(C)N=C(C)C(C(=O)OC)[C@@H]1c1cccc(Cl)c1` (stereo partly drawn), 4.22.

Still in this data set, the particulars now being: pH 10.5.
The compound `C=CCn1c(SCC(=O)N2C[C@@]3(C)C[C@@H]2CC(C)(C)C3)nc2sc(CC)cc2c1=O` yielded a logD of 6.04.
The compound `COCCOC(=O)C1=C(C)NC2=C(C(=O)CC(c3cccc(OC)c3)C2)C1c1coc2ccc(C)cc2c1=O` (stereo not drawn) returned a logD of 5.23.
